Where a SMILES comes first, the peptide text is derived from it. Bridges are numbered along the chain shown (N, C = ends). [ ]: non-standard residue; d: D form. The star is where a group is joined. Ala(1H-tetrazol-5-yl) = N[C@@H](Cc1nnn[nH]1)C(=O)O; Phe(4-COOH) = N[C@@H](Cc1ccc(C(=O)O)cc1)C(=O)O; Bip = N[C@@H](Cc1ccc(-c2ccccc2)cc1)C(=O)O; Phe(3-Me) = Cc1cccc(C[C@H](N)C(=O)O)c1; 4Pal = N[C@@H](Cc1ccncc1)C(=O)O; Carboxymethyl = O=C(O)C*; Orn = NCCC[C@H](N)C(=O)O; Dab = NCC[C@H](N)C(=O)O; Dap = NC[C@H](N)C(=O)O

T1 sequence (Q15116 25-288): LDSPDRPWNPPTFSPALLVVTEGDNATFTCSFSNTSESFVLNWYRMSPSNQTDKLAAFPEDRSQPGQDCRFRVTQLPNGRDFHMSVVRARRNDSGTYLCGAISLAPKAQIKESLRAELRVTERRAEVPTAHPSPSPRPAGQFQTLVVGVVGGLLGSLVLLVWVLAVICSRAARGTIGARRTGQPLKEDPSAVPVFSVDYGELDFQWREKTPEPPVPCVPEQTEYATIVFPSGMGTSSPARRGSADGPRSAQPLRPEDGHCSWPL

The first assay has as its target T1, human PD-1 / PD-L1-Ig binding on Jurkat cell line over-expressing human PD-1 (Jurkat-PD-1) (Homo sapiens, UniProt Q15116).
T1 construct: expressed in transfected cells; host or cells: Jurkat
Briefly: Jurkat-PD-1 Cell Binding High-Content Screening Assay (CBA). As to conditions: Jurkat HPD1_PDL1 IC50, Jurkat-PD-1 cells, PE-labeled PD-L1-Ig 20 nM final. It counts as cell-based. The procedure, abridged:
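Read-out: high-content imaging of PE-tagged PD-L1-Ig bound to Jurkat cells overexpressing human PD-1, after fixation with 4% paraformaldehyde and Hoechst 33342 nuclear staining. Ligand was used at 20 nM final for 1 hour, after a 2 h compound exposure at 37° C in serum-containing DMEM.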
For the compound `CC(C)C[C@@H]1NC(=O)[C@H](Cc2c[nH]c3ccccc23)NC(=O)[C@H](CC(=O)O)NC(=O)[C@H](Cc2ccc(OCC(=O)O)cc2)NC(=O)[C@H](CN)NC(=O)CSC[C@@H](C(=O)NCC(N)=O)NC(=O)[C@H](CO)NC(=O)[C@H](C(C)C)NC(=O)[C@H](CC(C)C)NC(=O)[C@H](CC(N)=O)NC(=O)[C@@H](CC(C)C)NC(=O)[C@H](CN)NC(=O)[C@H](C(C)C)NC(=O)[C@H](Cc2ccc(-c3ccccc3)cc2)NC1=O` [Compound 1276] ({CH2CO}-[Dap]Y(Carboxymethyl)DWL[Bip]V[Dap][dL]NLVSCG-NH2; thioether N-14), the IC50 (usually the concentration needed to halve the response being measured) is 8.1 nM.

Still in this assay, the particulars now being: Jurkat-PD-1 cells, PE-labeled PD-L1-Ig 20 nM final; read-out: Jurkat HPD1_PDL1 IC50.
Turning to `CC(C)C[C@@H]1NC(=O)[C@H](Cc2c[nH]c3ccccc23)NC(=O)[C@H](CC(=O)O)NC(=O)[C@H](Cc2ccncc2)NC(=O)[C@H](Cc2ccc(OCC(=O)O)cc2)NC(=O)CSC[C@@H](C(=O)NCC(N)=O)NC(=O)[C@H](CO)NC(=O)[C@H](C(C)C)NC(=O)[C@H](CC(C)C)NC(=O)[C@H](CCN)NC(=O)[C@@H](CC(C)C)NC(=O)[C@H](CCCN)NC(=O)[C@H](C(C)C)NC(=O)[C@H](Cc2ccc(-c3ccccc3)cc2)NC1=O` [Compound 1258] ({CH2CO}-Y(Carboxymethyl)[4Pal]DWL[Bip]V[Orn][dL][Dab]LVSCG-NH2; thioether N-14), the IC50 turned out to be 8 nM.
Same read-out and setting: the figure for `Cc1cccc(C[C@@H]2NC(=O)[C@H](CC(=O)O)NC(=O)[C@H](Cc3ccc(C(=O)O)cc3)NC(=O)[C@H](Cc3ccc(OCC(=O)O)cc3)NC(=O)CSC[C@@H](C(=O)NCC(N)=O)NC(=O)[C@H](CO)NC(=O)[C@H](C(C)C)NC(=O)[C@H](CC(C)C)NC(=O)[C@H](CCN)NC(=O)[C@@H](CC(C)C)NC(=O)[C@H](CCCN)NC(=O)[C@H](C(C)C)NC(=O)[C@H](Cc3ccc(-c4ccccc4)cc3)NC(=O)[C@H](CC(C)C)NC2=O)c1` [Compound 1260] ({CH2CO}-Y(Carboxymethyl)[Phe(4-COOH)]D[Phe(3-Me)]L[Bip]V[Orn][dL][Dab]LVSCG-NH2; thioether N-14) is 7.4 nM; for `Cc1cccc(C[C@@H]2NC(=O)[C@H](CC(=O)O)NC(=O)[C@H](Cc3ccncc3)NC(=O)[C@H](CN)NC(=O)CSC[C@@H](C(=O)NCC(N)=O)NC(=O)[C@H](CO)NC(=O)[C@H](C(C)C)NC(=O)[C@H](CC(C)C)NC(=O)[C@H](CCN)NC(=O)[C@@H](CC(C)C)NC(=O)[C@H](CCCN)NC(=O)[C@H](C(C)C)NC(=O)[C@H](Cc3ccc(-c4ccccc4)cc3)NC(=O)[C@H](CC(C)C)NC2=O)c1` [Compound 1261] ({CH2CO}-[Dap][4Pal]D[Phe(3-Me)]L[Bip]V[Orn][dL][Dab]LVSCG-NH2; thioether N-14) it is 13.1 nM.
Still for that read-out and setting: the figure for `Cc1cccc(C[C@@H]2NC(=O)[C@H](CC(=O)O)NC(=O)[C@H](Cc3ccc(OCC(=O)O)cc3)NC(=O)[C@H](Cc3ccc(OCC(=O)O)cc3)NC(=O)CSC[C@@H](C(=O)NCC(N)=O)NC(=O)[C@H](CO)NC(=O)[C@H](C(C)C)NC(=O)[C@H](CC(C)C)NC(=O)[C@H](CCN)NC(=O)[C@@H](CC(C)C)NC(=O)[C@H](CCCN)NC(=O)[C@H](C(C)C)NC(=O)[C@H](Cc3ccc(-c4ccccc4)cc3)NC(=O)[C@H](CC(C)C)NC2=O)c1` [Compound 1262] ({CH2CO}-Y(Carboxymethyl)Y(Carboxymethyl)D[Phe(3-Me)]L[Bip]V[Orn][dL][Dab]LVSCG-NH2; thioether N-14) is 4.6 nM.
Regarding `Cc1cccc(C[C@@H]2NC(=O)[C@H](CC(=O)O)NC(=O)[C@H](Cc3ccc(OCC(=O)O)cc3)NC(=O)[C@H](Cc3ccncc3)NC(=O)CSC[C@@H](C(=O)NCC(N)=O)NC(=O)[C@H](CO)NC(=O)[C@H](C(C)C)NC(=O)[C@H](CC(C)C)NC(=O)[C@H](CCN)NC(=O)[C@@H](CC(C)C)NC(=O)[C@H](CCCN)NC(=O)[C@H](C(C)C)NC(=O)[C@H](Cc3ccc(-c4ccccc4)cc3)NC(=O)[C@H](CC(C)C)NC2=O)c1` [Compound 1263] ({CH2CO}-[4Pal]Y(Carboxymethyl)D[Phe(3-Me)]L[Bip]V[Orn][dL][Dab]LVSCG-NH2; thioether N-14), the IC50 is 6.2 nM.
On to `Cc1cccc(C[C@@H]2NC(=O)[C@H](CC(=O)O)NC(=O)[C@H](Cc3ccc(OCC(=O)O)cc3)NC(=O)[C@H](CN)NC(=O)CSC[C@@H](C(=O)NCC(N)=O)NC(=O)[C@H](CO)NC(=O)[C@H](C(C)C)NC(=O)[C@H](CC(C)C)NC(=O)[C@H](CCN)NC(=O)[C@@H](CC(C)C)NC(=O)[C@H](CCCN)NC(=O)[C@H](C(C)C)NC(=O)[C@H](Cc3ccc(-c4ccccc4)cc3)NC(=O)[C@H](CC(C)C)NC2=O)c1` [Compound 1264] ({CH2CO}-[Dap]Y(Carboxymethyl)D[Phe(3-Me)]L[Bip]V[Orn][dL][Dab]LVSCG-NH2; thioether N-14), for which the IC50 amounted to 4.5 nM.
Take `Cc1cccc(C[C@@H]2NC(=O)[C@H](CC(=O)O)NC(=O)[C@H](Cc3ccncc3)NC(=O)[C@H](Cc3ccc(OCC(=O)O)cc3)NC(=O)CSC[C@@H](C(=O)NCC(N)=O)NC(=O)[C@H](CO)NC(=O)[C@H](C(C)C)NC(=O)[C@H](CC(C)C)NC(=O)[C@H](CCN)NC(=O)[C@@H](CC(C)C)NC(=O)[C@H](CCCN)NC(=O)[C@H](C(C)C)NC(=O)[C@H](Cc3ccc(-c4ccccc4)cc3)NC(=O)[C@H](CC(C)C)NC2=O)c1` [Compound 1265] ({CH2CO}-Y(Carboxymethyl)[4Pal]D[Phe(3-Me)]L[Bip]V[Orn][dL][Dab]LVSCG-NH2; thioether N-14): the IC50 came out at 7.7 nM.
With `CC(C)C[C@@H]1NC(=O)[C@H](CCN)NC(=O)[C@@H](CC(C)C)NC(=O)[C@H](CCN)NC(=O)[C@H](CCC(=O)O)NC(=O)[C@H](Cc2ccc(-c3ccccc3)cc2)NC(=O)[C@H](C(C)C)NC(=O)[C@H](Cc2c[nH]c3ccccc23)NC(=O)[C@H](CC(=O)O)NC(=O)[C@H](Cc2ccc(OCC(=O)O)cc2)NC(=O)[C@H](Cc2ccncc2)NC(=O)CSC[C@@H](C(=O)N[C@@H](C)C(N)=O)NC(=O)[C@H](CO)NC(=O)[C@H](C(C)C)NC1=O` [Compound 1266] ({CH2CO}-[4Pal]Y(Carboxymethyl)DWV[Bip]E[Dab][dL][Dab]LVSCA-NH2; thioether N-14), the IC50 amounted to 29.6 nM.
Still for that read-out and setting: the figure for `CC(C)C[C@@H]1NC(=O)[C@H](CCN)NC(=O)[C@@H](CC(C)C)NC(=O)[C@H](CCN)NC(=O)[C@H](CCC(=O)O)NC(=O)[C@H](Cc2ccc(-c3ccccc3)cc2)NC(=O)[C@H](C(C)C)NC(=O)[C@H](Cc2c[nH]c3ccccc23)NC(=O)[C@H](CC(=O)O)NC(=O)[C@H](Cc2ccncc2)NC(=O)[C@H](CN)NC(=O)CSC[C@@H](C(=O)N[C@@H](C)C(N)=O)NC(=O)[C@H](CO)NC(=O)[C@H](C(C)C)NC1=O` [Compound 1267] ({CH2CO}-[Dap][4Pal]DWV[Bip]E[Dab][dL][Dab]LVSCA-NH2; thioether N-14) is 99.9 nM.
Still for that read-out and setting: the figure for `CC(C)C[C@@H]1NC(=O)[C@H](CCN)NC(=O)[C@@H](CC(C)C)NC(=O)[C@H](CCN)NC(=O)[C@H](CCC(=O)O)NC(=O)[C@H](Cc2ccc(-c3ccccc3)cc2)NC(=O)[C@H](C(C)C)NC(=O)[C@H](Cc2c[nH]c3ccccc23)NC(=O)[C@H](CC(=O)O)NC(=O)[C@H](Cc2ccc(OCC(=O)O)cc2)NC(=O)[C@H](Cc2ccc(OCC(=O)O)cc2)NC(=O)CSC[C@@H](C(=O)N[C@@H](C)C(N)=O)NC(=O)[C@H](CO)NC(=O)[C@H](C(C)C)NC1=O` [Compound 1268] ({CH2CO}-Y(Carboxymethyl)Y(Carboxymethyl)DWV[Bip]E[Dab][dL][Dab]LVSCA-NH2; thioether N-14) is 24.6 nM; for `CC(C)C[C@@H]1NC(=O)[C@H](CCN)NC(=O)[C@@H](CC(C)C)NC(=O)[C@H](CCN)NC(=O)[C@H](CCC(=O)O)NC(=O)[C@H](Cc2ccc(-c3ccccc3)cc2)NC(=O)[C@H](C(C)C)NC(=O)[C@H](Cc2c[nH]c3ccccc23)NC(=O)[C@H](CC(=O)O)NC(=O)[C@H](Cc2ccc(C(=O)O)cc2)NC(=O)[C@H](Cc2ccc(OCC(=O)O)cc2)NC(=O)CSC[C@@H](C(=O)N[C@@H](C)C(N)=O)NC(=O)[C@H](CO)NC(=O)[C@H](C(C)C)NC1=O` [Compound 1269] ({CH2CO}-Y(Carboxymethyl)[Phe(4-COOH)]DWV[Bip]E[Dab][dL][Dab]LVSCA-NH2; thioether N-14) it is 40.4 nM; for `Cc1cccc(C[C@@H]2NC(=O)[C@H](Cc3nn[nH]n3)NC(=O)[C@H](Cc3ccc(OCC(=O)O)cc3)NC(=O)[C@H](CN)NC(=O)CSC[C@@H](C(=O)NCC(N)=O)NC(=O)[C@H](CO)NC(=O)[C@H](C(C)C)NC(=O)[C@H](CC(C)C)NC(=O)[C@H](CC(N)=O)NC(=O)[C@@H](CC(C)C)NC(=O)[C@H](CN)NC(=O)[C@H](C(C)C)NC(=O)[C@H](Cc3ccc(-c4ccccc4)cc3)NC(=O)[C@H](CC(C)C)NC2=O)c1` [Compound 1273] ({CH2CO}-[Dap]Y(Carboxymethyl)[Ala(1H-tetrazol-5-yl)][Phe(3-Me)]L[Bip]V[Dap][dL]NLVSCG-NH2; thioether N-14) it is 54.8 nM.
Take `CC(C)C[C@@H]1NC(=O)[C@H](Cc2c[nH]c3ccccc23)NC(=O)[C@H](CC(=O)O)NC(=O)[C@H](Cc2ccc(O)cc2)NC(=O)[C@H](Cc2ccccc2)NC(=O)CSC[C@@H](C(=O)NCC(N)=O)NC(=O)[C@H](CO)NC(=O)[C@H](C(C)C)NC(=O)[C@H](CC(C)C)NC(=O)[C@H](CC(N)=O)NC(=O)[C@@H](CC(C)C)NC(=O)[C@H](CN)NC(=O)[C@H](C(C)C)NC(=O)[C@H](Cc2ccc(-c3ccccc3)cc2)NC1=O` [Compound 1274] ({CH2CO}-FYDWL[Bip]V[Dap][dL]NLVSCG-NH2; thioether N-14): the IC50 amounted to 38.4 nM.
Same read-out and setting: the figure for `CC(C)C[C@@H]1NC(=O)[C@H](Cc2c[nH]c3ccccc23)NC(=O)[C@H](CC(=O)O)NC(=O)[C@H](Cc2ccc(C(=O)O)cc2)NC(=O)[C@H](Cc2ccc(OCC(=O)O)cc2)NC(=O)CSC[C@@H](C(=O)NCC(N)=O)NC(=O)[C@H](CO)NC(=O)[C@H](C(C)C)NC(=O)[C@H](CC(C)C)NC(=O)[C@H](CC(N)=O)NC(=O)[C@@H](CC(C)C)NC(=O)[C@H](CN)NC(=O)[C@H](C(C)C)NC(=O)[C@H](Cc2ccc(-c3ccccc3)cc2)NC1=O` [Compound 1275] ({CH2CO}-Y(Carboxymethyl)[Phe(4-COOH)]DWL[Bip]V[Dap][dL]NLVSCG-NH2; thioether N-14) is 13.8 nM.
